A word on the EC50: it is the concentration at which the effect is half-maximal. For orientation: IC50 means the point on the concentration scale where inhibition reaches its midpoint. A high value points to lower potency.

The values below come from patent US11584726B2 (Beijing Foreland Pharma Co., Ltd., priority 2017, dated 2023).

The subject of experiment [1] is CD8 on peripheral blood cell. Briefly: Effects on the expression of CD8 on peripheral blood cell in mice (flow cytometry). It is filed as in vivo, mice (C57 BL/6). The conditions noted are these: intragastric, once a day for four days, mouse peripheral blood. As to the method: (§1) FITC Rat Anti-Mouse CD8a: BD, Cat. #553030.
(§2) PE Rat Anti-Mouse CD4: BD, Cat. #557308.
(§3) APC Rat Anti-Mouse CD19: BD, Cat. #561738.
(§4) The compounds used in the test were prepared by the chemical department of Beijing Forelandpharma Co. Ltd.
(§5) Routs of administration: intragastric administration, once a day, and continuous administration for four days.
(§6) After the administration, supraorbital venous blood was collected from the mouse, added to an EP tube (1.5 ml) containing an anticoagulant, and kept on the ice. The resulting mixture was transferred to a test tube, centrifuged at 4° C. and 1200 rpm/min for 5 min, removed with the supernatant liquid, added with a lysate, processed with cell lysis on the ice for 5 min, then pre-dyed, added with diluted antibody, and incubated away from light for 30 min. After the incubation, the resulting mixture was washed, removed with the supernatant liquid, added with stationary liquid, and kept in a refrigerator at 4° C. away from light for the test of flow cytometry.
(In general: Flow cytometry measures light scatter and fluorescence of single cells or particles in a stream.)

Experiment [2] deals with CD4 on peripheral blood cell. Briefly: Effects on the expression of CD4 on peripheral blood cell in mice (flow cytometry). It is filed as in vivo, mice (C57 BL/6). The conditions noted are these: intragastric, once a day for four days, mouse peripheral blood. As to the method:
as §1, §2, §3, §4, §5, §6

Experiment [3] deals with CD19 on peripheral blood cell. Briefly: Effects on the expression of CD19 on peripheral blood cell in mice (flow cytometry). It is filed as in vivo, mice (C57 BL/6). Particulars: intragastric, once a day for four days, mouse peripheral blood. As to the method:
as §1, §2, §3, §4, §5, §6

For the next experiment, the target named is S1P3 (Homo sapiens (Human), UniProt Q99500). The experiment can be described thus: PathHunter β-arrestin test S1P3. It is filed as cell-based. The conditions noted are these: PathHunter β-arrestin engineering cells. As to the method: (§7) 1. PathHunter β-arrestin testing system was used to detect the biological activity of the compounds.
Chain of S1P3 (Q99500 whole entry, species assumed): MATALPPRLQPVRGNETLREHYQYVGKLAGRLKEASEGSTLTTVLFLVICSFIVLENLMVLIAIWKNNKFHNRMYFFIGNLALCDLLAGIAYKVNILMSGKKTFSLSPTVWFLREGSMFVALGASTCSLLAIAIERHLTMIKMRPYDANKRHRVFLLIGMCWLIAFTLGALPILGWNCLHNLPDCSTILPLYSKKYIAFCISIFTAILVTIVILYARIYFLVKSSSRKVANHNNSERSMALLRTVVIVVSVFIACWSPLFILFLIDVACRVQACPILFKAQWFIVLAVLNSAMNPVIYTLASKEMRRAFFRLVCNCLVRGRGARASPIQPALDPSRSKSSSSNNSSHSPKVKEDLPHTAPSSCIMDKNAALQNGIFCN
(§8) 2. β-arrestin engineering cells were cultured on […] culture plates and placed in an incubator at 37° C.
(§9) 3. The sample to be tested was diluted with reaction solution in 5-fold dilution.
(§10) 4. The diluted sample to be tested was added to the engineering cells and the reaction was induced and observed.
(§11) 5. The chemiluminescence signal produced in the test may be detected by multifunctional enzyme marker (PerkinElmer Envision™).
(§12) Test Analysis and Results
(§13) 6. The data obtained was analyzed using the data analysis software of CBIS (ChemInnovation, CA) to achieve EC50, and the test results are shown in Table 2.

Another experiment deals with S1P4 (Homo sapiens (Human), UniProt O95977). The experiment can be described thus: PathHunter β-arrestin test S1P4. It is filed as cell-based. The conditions noted are these: PathHunter β-arrestin engineering cells. As to the method:
as §7, §8, §9, §10, §11, §12, §13

Another experiment has as its target S1P1 (Homo sapiens (Human), UniProt P21453). The experiment can be described thus: PathHunter β-arrestin test S1P1. It is filed as cell-based. Particulars: PathHunter β-arrestin engineering cells. On the procedure:
as §7, §8, §9, §10, §11, §12, §13

The next experiment has as its target hERG potassium channel (Homo sapiens (Human), UniProt Q12809). Briefly: hERG patch clamp test in HEK293 engineering cells. It is filed as cell-based. The conditions noted are these: HEK293 cells stably expressing hERG potassium channel. As to the method:
1. HEK293 engineering cells stably expressed with hERG potassium channel were used to test the compounds.
The cells were separated by TrypLE™ Express before the test. 3×10^3 of cells were spread on a cover plate, cultured in 24-well plate and tested 18 hours later. The signals produced by voltage stimulation of potassium currents in cells were recorded by electrophysiological techniques.
Data Analysis and Results
First of all, currents after the action of drug of each concentration and blank control were standardized separately
[formula] and then the corresponding inhibition ratio of each concentration was calculated
[formula] The average and the standard error were calculated for each concentration, and 50% inhibiting concentration of each compound was calculated according to the following equation: […]
The dose-dependent effect was obtained through nonlinear fitting with the equation above. C refers to drug concentration, IC50 refers to 50% inhibiting concentration and h refers to hill coefficient. The curve fitting and the calculation of IC50 were processed by IGOR software.
(In general: hERG is a cardiac potassium channel; its block is linked to QT prolongation.)

The next experiment concerns the target S1P5 (Homo sapiens (Human), UniProt Q9H228). The experiment can be described thus: Fluorescence detection FLIPR assay, activation of GPCR (S1P5). The conditions noted are these: total detection time 180 s, read-out: FLIPR Test EC50 S1P5. It is filed as cell-based. On the procedure:
The sample to be tested was dissolved in DMSO and diluted with detection buffer solution in 3-fold dilution. A reagent and a positive control were diluted in the same way.
The reactions of the agonist, the reagent and the positive control were detected by a device of […] with a total detection time of 180 s to estimate the ability to activate GPCR (S1P5) of each compound.

In the next experiment the target is S1P2 (Homo sapiens (Human), UniProt O95136). The experiment can be described thus: PathHunter β-arrestin test S1P2. It is filed as cell-based. Particulars: PathHunter β-arrestin engineering cells. On the procedure:
as §7, §8, §9, §10, §11, §12, §13

Chain of hERG potassium channel (Q12809 whole entry): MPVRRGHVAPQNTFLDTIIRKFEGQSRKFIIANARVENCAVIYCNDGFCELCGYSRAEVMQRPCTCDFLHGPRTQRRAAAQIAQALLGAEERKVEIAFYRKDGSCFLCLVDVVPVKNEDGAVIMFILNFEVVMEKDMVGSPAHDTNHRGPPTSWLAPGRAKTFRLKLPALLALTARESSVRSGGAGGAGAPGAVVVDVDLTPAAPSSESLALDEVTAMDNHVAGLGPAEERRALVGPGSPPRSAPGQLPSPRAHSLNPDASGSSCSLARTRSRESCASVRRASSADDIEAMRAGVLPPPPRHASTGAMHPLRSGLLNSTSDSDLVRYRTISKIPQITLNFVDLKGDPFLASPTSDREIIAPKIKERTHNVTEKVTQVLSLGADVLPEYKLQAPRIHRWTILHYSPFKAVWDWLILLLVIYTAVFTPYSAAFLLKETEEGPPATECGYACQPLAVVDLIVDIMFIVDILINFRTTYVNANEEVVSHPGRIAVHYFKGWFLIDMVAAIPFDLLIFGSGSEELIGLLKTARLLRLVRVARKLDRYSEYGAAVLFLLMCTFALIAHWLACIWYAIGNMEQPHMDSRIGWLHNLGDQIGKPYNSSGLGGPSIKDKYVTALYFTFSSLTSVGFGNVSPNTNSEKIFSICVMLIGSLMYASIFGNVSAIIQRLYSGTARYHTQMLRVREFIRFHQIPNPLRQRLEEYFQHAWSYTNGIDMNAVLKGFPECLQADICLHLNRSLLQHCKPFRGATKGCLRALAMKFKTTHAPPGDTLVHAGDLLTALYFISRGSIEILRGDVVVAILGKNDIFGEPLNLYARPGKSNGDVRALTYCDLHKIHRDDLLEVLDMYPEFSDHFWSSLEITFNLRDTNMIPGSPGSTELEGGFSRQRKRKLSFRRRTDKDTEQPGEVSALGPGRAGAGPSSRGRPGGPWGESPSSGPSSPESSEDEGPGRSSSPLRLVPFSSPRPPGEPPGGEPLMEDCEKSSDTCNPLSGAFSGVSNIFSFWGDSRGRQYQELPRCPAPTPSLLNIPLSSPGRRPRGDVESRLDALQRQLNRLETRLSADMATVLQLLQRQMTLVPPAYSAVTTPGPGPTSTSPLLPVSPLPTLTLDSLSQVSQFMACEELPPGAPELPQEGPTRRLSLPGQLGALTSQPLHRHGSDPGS
Chain of S1P1 (P21453 whole entry, species assumed): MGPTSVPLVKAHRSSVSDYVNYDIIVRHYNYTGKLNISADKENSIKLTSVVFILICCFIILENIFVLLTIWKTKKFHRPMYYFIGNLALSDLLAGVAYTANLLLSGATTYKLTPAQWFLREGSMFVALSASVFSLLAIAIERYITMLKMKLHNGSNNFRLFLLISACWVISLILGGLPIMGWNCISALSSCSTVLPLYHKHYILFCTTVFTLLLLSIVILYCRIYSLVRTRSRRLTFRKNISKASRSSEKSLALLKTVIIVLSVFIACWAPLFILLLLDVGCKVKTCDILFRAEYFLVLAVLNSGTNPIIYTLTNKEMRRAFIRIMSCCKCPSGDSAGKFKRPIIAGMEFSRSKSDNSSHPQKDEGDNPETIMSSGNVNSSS
Chain of S1P4 (O95977 whole entry, species assumed): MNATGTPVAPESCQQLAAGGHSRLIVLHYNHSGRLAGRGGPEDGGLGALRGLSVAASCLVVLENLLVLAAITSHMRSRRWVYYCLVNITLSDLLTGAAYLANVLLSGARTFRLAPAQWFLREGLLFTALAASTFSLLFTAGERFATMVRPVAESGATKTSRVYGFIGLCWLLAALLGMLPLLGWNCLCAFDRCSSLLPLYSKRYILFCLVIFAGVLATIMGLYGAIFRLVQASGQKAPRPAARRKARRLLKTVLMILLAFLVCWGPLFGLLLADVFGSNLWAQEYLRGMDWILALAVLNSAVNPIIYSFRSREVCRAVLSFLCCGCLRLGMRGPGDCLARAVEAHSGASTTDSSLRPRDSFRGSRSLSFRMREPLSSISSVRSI
Chain of S1P5 (Q9H228 whole entry, species assumed): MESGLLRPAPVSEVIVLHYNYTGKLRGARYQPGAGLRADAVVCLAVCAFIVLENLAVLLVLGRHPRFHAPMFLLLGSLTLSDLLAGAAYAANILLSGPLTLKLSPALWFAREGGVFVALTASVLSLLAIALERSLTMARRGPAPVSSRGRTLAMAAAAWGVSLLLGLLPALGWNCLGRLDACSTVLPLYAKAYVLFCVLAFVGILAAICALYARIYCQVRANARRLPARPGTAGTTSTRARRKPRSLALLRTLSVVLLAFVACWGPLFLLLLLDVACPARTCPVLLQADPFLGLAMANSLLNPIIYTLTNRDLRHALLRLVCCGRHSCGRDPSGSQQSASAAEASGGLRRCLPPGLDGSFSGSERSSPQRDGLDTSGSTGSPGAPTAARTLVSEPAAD
Chain of S1P2 (O95136 whole entry, species assumed): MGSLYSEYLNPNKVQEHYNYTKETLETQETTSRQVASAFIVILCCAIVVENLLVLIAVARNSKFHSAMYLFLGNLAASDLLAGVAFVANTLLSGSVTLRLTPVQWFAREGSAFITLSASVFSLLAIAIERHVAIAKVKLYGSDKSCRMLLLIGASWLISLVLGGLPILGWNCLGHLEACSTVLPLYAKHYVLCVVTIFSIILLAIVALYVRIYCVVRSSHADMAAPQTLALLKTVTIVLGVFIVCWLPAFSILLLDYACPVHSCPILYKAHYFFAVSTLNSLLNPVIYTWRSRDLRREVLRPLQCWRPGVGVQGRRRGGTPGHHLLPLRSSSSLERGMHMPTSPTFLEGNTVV

With `CC(=O)Nc1ccc(-c2nnc(-c3ccc4c(c3)C[C@](N)(CO)CC4)o2)cc1` [Example 9, (S)—N-(4-(5-(7-amino-7-(hydroxymethyl)-5,6,7,8-tetrahydronaphthalen-2-yl)-1,3,4-oxadiazol-2-yl)phenyl)acetamide], the “CD8 (%)” value in [1] (1 mg/kg) worked out at 17.3%; in [1] (5 mg/kg) it was 17.0%. The “CD4 (%)” value in experiment [2] (1 mg/kg) is on record as 33.1%; in [2] (5 mg/kg), 31.9%. Also, the “CD19 (%)” value in [3] (1 mg/kg) is listed as 42.5%; in experiment [3] (5 mg/kg) it was 44.3%.

Turning to `COc1ccc(-c2nnc(-c3ccc4c(c3)C[C@](N)(CO)CC4)o2)cc1F` [Example 8, (S)-(2-amino-7-(5-(3-fluoro-4-methoxyphenyl)-1,3,4-oxadiazol-2-yl)-1,2,3,4-tetrahydronaphthalen-2-yl)methanol], the “CD8 (%)” value came out at 16.6% in experiment [1] (1 mg/kg) and 16.0% in experiment [1] (5 mg/kg). Moreover, the “CD4 (%)” value was found to be 33.4% in experiment [2] (1 mg/kg) and 30.0% in [2] (5 mg/kg). Also, the “CD19 (%)” value in experiment [3] (1 mg/kg) is on record as 36.8%; in experiment [3] (5 mg/kg), 41.7%.

With `CCCCCCCCCCCCC/C=C/[C@@H](O)[C@@H](N)COP(=O)(O)O` [Example S1P, sphingosine-1-phosphate, reference compound], the EC50 at S1P3 is 26.3 nM; on S1P4, 190 nM; on S1P1, 25.2 nM.

For `CC(C)Oc1ccc(-c2nnc(-c3ccc4c(c3)C[C@](N)(CO)CC4)o2)cc1C(N)=O` [Example 4, (S)-5-(5-(7-amino-7-(hydroxymethyl)-5,6,7,8-tetrahydronaphthalen-2-yl)-1,3,4-oxadiazol-2-yl)-2-isopropoxybenzamide], the “CD8 (%)” value in experiment [1] (1 mg/kg) is given as 14.5%; in experiment [1] (5 mg/kg), 12.3%. Further, the “CD4 (%)” value in [2] (1 mg/kg) worked out at 27.1%; in experiment [2] (5 mg/kg), 27.0%. Besides, the “CD19 (%)” value in experiment [3] (1 mg/kg) is reported as 47.1%; in experiment [3] (5 mg/kg), 43.6%.

In the case of `CC(C)Oc1ccc(-c2nnc(-c3ccc4c(c3)C[C@](N)(CO)CC4)o2)cc1C(F)(F)F` [Example 14, (S)-(2-amino-7-(5-(4-isopropoxy-3-(trifluoromethyl)phenyl)-1,3,4-oxadiazol-2-yl)-1,2,3,4-tetrahydronaphthalen-2-yl)methanol], at hERG potassium channel, the IC50 was 870 nM.

As to `CC(C)Oc1ccc(-c2nnc(-c3ccc4c(c3)C[C@](N)(CO)CC4)o2)cc1C#N` [Example 3, (S)-5-(5-(7-amino-7-(hydroxymethyl)-5,6,7,8-tetrahydronaphthalen-2-yl)-1,3,4-oxadiazol-2-yl)-2-isopropoxybenzonitrile], the EC50 at S1P3 was 2110 nM; at S1P5, 250 nM; at S1P2, greater than 100000 nM; at S1P4, greater than 100000 nM; at S1P1, 4.56 nM. The molecule also yielded an IC50 at hERG potassium channel of 7800 nM. In addition, the “CD8 (%)” value in experiment [1] (1 mg/kg) is recorded as 11.9%; in experiment [1] (5 mg/kg), 6.1%. Also, the “CD4 (%)” value in experiment [2] (1 mg/kg) is 22.1%; in [2] (5 mg/kg), 7.2%. Also, the entries for the “CD19 (%)” value in [3] (1 mg/kg) and in experiment [3] (5 mg/kg) were 39.3% and 24.7%, respectively.

As to `N#Cc1cc(-c2nnc(-c3ccc4c(c3)C[C@](N)(CO)CC4)o2)ccc1O` [Example 5, (S)-5-(5-(7-amino-7-(hydroxymethyl)-5,6,7,8-tetrahydronaphthalen-2-yl)-1,3,4-oxadiazol-2-yl)-2-hydroxybenzonitrile], the “CD8 (%)” value was 16.8% in [1] (1 mg/kg) and 14.7% in experiment [1] (5 mg/kg). In addition, the “CD4 (%)” value in experiment [2] (1 mg/kg) was found to be 31.5%; in [2] (5 mg/kg), 27.1%. Besides, the entries for the “CD19 (%)” value in experiment [3] (1 mg/kg) and in experiment [3] (5 mg/kg) were 44.3% and 43.8%, respectively.
